Measurements reported in US8236844B2, “Histidine derivatives” (Nippon Zoki Pharmaceutical Co., Ltd., priority 2006, dated 2012).

What was measured:
mice [1] = assay: Test for analgesic effect (4): acetic acid writhing test; assay type: in vivo, mouse (ddY strain); settings: writhing numbers during 10 minutes
Description: The compounds of the present invention were orally administered to mice and a test for an analgesic effect was carried out by means of an acetic acid writhing test. As to the test animals, male mice of ddY strain of four weeks age were subjected to a preliminary breeding and they were used where one group comprised ten mice. Each of the compound of the present invention as a test substance was orally administered (10 mg/kg, 100 mg/kg) in a single dose while, to a control group, distilled water (water for injection) was administered similarly. After 25 minutes from the administration of the test substance, a 0.7% acetic acid/physiological saline was intraperitoneally administered at the dose of 10 mL/kg. From 5 minutes thereafter, writhing numbers during 10 minutes were counted and a suppressive rate for each mouse was calculated according to the following formula. Suppressive Rate(%)=[(Mean writhing numbers of the control group)−(Writhing numbers of each mouse)]÷[Mean writhing numbers of the control group]×100

SART stressed mouse [2] = assay: Test for analgesic effect (1): SART stressed mouse, modified Randall-Selitto tail pressure method; assay type: in vivo, mouse (ddY strain)
Description: Loading of SART (Specific Alternation of Rhythm in Temperature) stress or repetitive cold stress was conducted in accordance with a method of Kita, et al. (Nippon Yakurigaku Zasshi, Vol. 71, pages 195 to 210, 1975). In a constant-temperature vessel for breeding, a breeding environment temperature for male mice of ddY strain was alternately changed at 4° C. and 24° C. every one hour from 10 a.m. until 5 p.m. and kept at 4° C. from 5 p.m. to 10 a.m. of the next morning. Breeding was conducted for 5 days where water and feed were freely taken by the mice so as to load a repetitive cold stress and, after that, the mice were subjected to the test. Before and after 30 minutes from administration of the test substance, analgesic threshold value was measured by a modified Randall-Selitto method (Tail pressure method; Nippon Yakurigaku Zasshi, Vol. 72, pages 573 to 584, 1976). Thus, Using a Randall-Selitto analgesic effect measuring device where a pressing piece was modified for mouse tail, a pressure stimulation was applied at the rate of 16 g/second to the site which was 1.5 cm to the front end from tail root of the mouse and pressurized weight (g) showing an escaping or squeaking reaction was measured and adopted as a pain threshold value. […] A value (analgesic coefficient) where the pain threshold of the test substance administration group was divided by the pain threshold of the SART control group was calculated and the analgesic effect of the test substance was confirmed. Thus, when the test substance had no effect at all, said value was 1.0 and, as the effect became stronger, the value of the analgesic coefficient increased as 1.1, 1.2 and 1.3. Significant difference between the two groups was determined by a statistic processing of the pain threshold values and the analgesic coefficient was calculated as a mean value of the pain threshold values.
As to the test animals, male mice of ddY strain of four weeks age (one group comprised ten mice) were used. The compound of the present invention as a test substance was administered at a dose of 25 ng or 50 ng per mouse into the lateral ventricle whereupon its analgesic effect was measured.
Further, when the Compound 1 of the present invention was intraperitoneally administered (100 μg/kg), the pain threshold value in the SART control group was […] while, in the test substance administration group, it was 97.8 g (analgesic coefficient: 1.24) whereby a significant improving effect for hyperalgesia was noted.

Chung model rat = assay: Test for analgesic effect (2)/(3): Chung model rat, von Frey allodynia measurement; assay type: in vivo, rat (Wistar strain); settings: for 50% reaction threshold value, Test substance administration group, Before admin.: baseline before intraperitoneal 400 μg/kg; for 50% reaction threshold value, Test substance administration group, After admin. for 30 minutes: intraperitoneal 400 μg/kg single dose, * P<0.05 Dunnett
Description: A test for analgesic effect was conducted using a Chung model rat which is a neuropathic pain model. As to the test animal, male rats of Wistar strain of nine weeks age were used and model rats were prepared in accordance with the method of Kim and Chung (Pain, vol. 50, pages 355 to 363, 1992). Thus, under anesthetization with pentobarbital (40 mg/kg, intraperitoneal administration), rat L5 spinal nerve was exposed and L5 dorsal root ganglion periphery side was strongly ligated using 5-0 silk yarn. The animals were placed in a transparent acrylate cage whose bottom was made of wire net, a 50% reaction threshold value was calculated by an up-down method using a von Frey filament (manufactured by North Coast Medical Inc.) according to the methods of Chaplan, et al. (J. Neurosci. Method, vol. 53, pages 55 to 63, 1994) and by Lee, et al. (J. Neurophysiol., vol. 81, pages 2226 to 2233, 1999) and measurement of allodynia was conducted. Before injury of spinal nerve, the 50% reaction threshold value was measured twice and the animals where the threshold value was outside the standard were excluded from the operation for spinal nerve injury. […] After 30 minutes from the administration of the test substance, allodynia was measured to calculate a 50% reaction threshold value. With regard to a significance test, Paired t-test was conducted for comparison between before and after the nerve injury and Dunnett's multiple comparison test was used for comparison among multiple groups of the nerve injury control group and the test substance administration group. […] After 30 minutes from administration of the test substance, measurement of allodynia was conducted to calculate the 50% reaction threshold value.

rats [3] = assay: Hyperalgesia in osteoarthritis model induced by monoiodoacetic acid into joints of rats; assay type: in vivo, rat; settings: oral administration of 1 mg/kg
mice [4] = assay: Single dose toxicity test by intraperitoneal administration to mice; assay type: in vivo, mouse (ddY strain); settings: intraperitoneal 250, 500 and 1,000 mg/kg
Description: A single dose toxicity test by intraperitoneal administration of the compounds of the present invention to mice was carried out. Male mice of ddY strain of four weeks age were made into groups of five mice so as to make mean body weight in each group nearly the same. The Compound 1 of the present invention as a test substance was intraperitoneally administered at the doses of 250 mg/kg, 500 mg/kg and 1,000 mg/kg.

SART stressed mouse [5] = assay: Test for analgesic effect (1): SART stressed mouse, modified Randall-Selitto tail pressure method; assay type: in vivo, mouse (ddY strain); settings: oral administration, peak after 30 minutes
rats [6] = assay: Formalin pain test for rats, second phase; assay type: in vivo, rat; settings: oral administration of 100 mg/kg
[7] = 50 ng per mouse into the lateral ventricle, 30 minutes after administration, pain threshold of test group / SART control group
[8] = 30 minutes after administration
[9] = 25 ng per mouse into the lateral ventricle, 30 minutes after administration, pain threshold of test group / SART control group

Compound | Suppressive Rate (mice [1]; oral 10 mg/kg single dose) [%] | Suppressive Rate (mice [1]; oral 100 mg/kg single dose) [%] | 50% reaction threshold value, Test substance administration group, Before admin. (Chung model rat) [g] | 50% reaction threshold value, Test substance administration group, After admin. for 30 minutes (Chung model rat; [8]) | Analgesic coefficient (SART stressed mouse [2]; [9]) | other results
CC=CC(=O)N[C@@H](Cc1cncn1CC)C(=O)O [Compound 4, N(α)-crotonoyl-N(π)-ethyl-L-histidine] | 32.9 | – | – | – | – | –
C=CC(=O)N[C@@H](Cc1cncn1CC)C(=O)O [Compound 2, N(α)-acryloyl-N(π)-ethyl-L-histidine] | – | 27.6 | 2.69 ± 0.39 | 5.98 ± 0.52* g | – | Analgesic coefficient (SART stressed mouse [2]; [7]): 1.18
CC=C(C)C(=O)N[C@@H](Cc1cncn1C)C(=O)O [Compound 7, N(α)-2-methyl-2-butenoyl-N(π)-methyl-L-histidine] | – | 36.1 | 2.71 ± 0.24 | 9.88 ± 1.59* g | 1.31 | –
CCn1cncc1C[C@H](NC(=O)C=Cc1ccccc1)C(=O)O [Compound 10, N(α)-3-phenylpropenoyl-N(π)-ethyl-L-histidine] | 27.7 | – | – | – | 1.14 | –
CC=CC(=O)N[C@@H](Cc1cncn1C)C(=O)O [Compound 3, N(α)-crotonoyl-N(π)-methyl-L-histidine] | – | – | – | – | 1.23 | –
Cc1ccc(C=CC(=O)N[C@@H](Cc2cncn2C)C(=O)O)cc1 [Compound 16, N(α)-3-(4-methylphenyl)acryloyl-N(π)-methyl-L-histidine] | – | 30.3 | – | – | – | –
C=CC(=O)N[C@@H](Cc1cncn1C(C)C)C(=O)O [Compound 13, N(α)-acryloyl-N(π)-isopropyl-L-histidine] | – | – | – | – | – | Analgesic coefficient (SART stressed mouse [2]; [7]): 1.31
CCn1cncc1C[C@H](NC(=O)C=C(C)C)C(=O)O [Compound 9, N(α)-3-methylcrotonoyl-N(π)-ethyl-L-histidine] | – | 38.0 | – | – | – | –
C=CC(=O)N[C@@H](Cc1cncn1Cc1ccccc1)C(=O)O [Compound 27, N(α)-acryloyl-N(π)-benzyl-L-histidine] | 37.9 | – | 2.58 ± 0.26 | 7.32 ± 1.32* g | – | –
C=C(C)C(=O)N[C@@H](Cc1cncn1C)C(=O)O [Compound 30, N(α)-methacryl-N(π)-methyl-L-histidine] | – | – | 2.63 ± 0.23 | 4.30 ± 0.46* g | – | –
NCCC(=O)N[C@@H](Cc1cnc[nH]1)C(=O)O [carnosine, β-ananyl-L-histidine, reference compound] | – | – | – | – | – | analgesic action (in words) (SART stressed mouse [2]; administration into the lateral ventricle): no significant analgesic action
CC=C(C)C(=O)N[C@@H](Cc1cncn1CC)C(=O)O [Compound 11, N(α)-2-methyl-2-butenoyl-N(π)-ethyl-L-histidine] | 36.1 | – | – | – | – | –
Cn1cncc1C[C@H](NC(=O)C=Cc1ccccc1)C(=O)O [Compound 6, N(α)-3-phenylpropenoyl-N(π)-methyl-L-histidine] | – | 23.5 | 2.69 ± 0.33 | 6.43 ± 1.52* g | 1.17 | –
C=CC(=O)N[C@@H](Cc1cncn1C)C(=O)O [Compound 1, N(α)-acryloyl-N(π)-methyl-L-histidine] | 33.1 | 53.8 | – | – | 1.33 | analgesic effect on hyperalgesia (in words) (rats [3]): significant analgesic effect; changes in the body weight compared with the control group (mice [4]): no significant difference; abnormal observation during the observation period (mice [4]; 14 days): no abnormal observation was noted; death (mice [4]; 14 days): no death case was noted; autopsied organs and tissues observed by naked eye (mice [4]; after 14 days): no abnormal case was found at all; analgesic action (in words) (SART stressed mouse [5]; 3 and 10 mg/kg): significant analgesic action; ED50 value determined from the improving rate at peak of action (SART stressed mouse [5]): 2.7 mg/kg; Analgesic coefficient (SART stressed mouse [2]; intraperitoneal 100 μg/kg): 1.24; pain threshold value (SART stressed mouse [2]; intraperitoneal 100 μg/kg, test substance administration group): 97.8 g; 50% reaction threshold value (Chung model rat; intraperitoneal 100 μg/kg single dose, 30 minutes after administration): 9.60 g; anti-allodynia action (in words) (Chung model rat; oral administration 10 mg/kg, peak after 30 minutes): significant anti-allodynia action; ED50 value determined from the improving rate at the peak of the action (Chung model rat; oral administration, peak after 30 minutes): 2.4 mg/kg; analgesic action against pain reaction in the second phase (in words) (rats [6]): significant analgesic action
CC(C)=CC(=O)N[C@@H](Cc1cncn1C)C(=O)O [Compound 5, N(α)-3-methylcrotonoyl-N(π)-methyl-L-histidine] | 17.8 | – | – | – | – | –
